Where “and” joins values, the source holds several entries; their conditions need not be identical. Equal entries are not always repeated. Where two headings read alike, the source gives them in different places.
What was measured:
[1] = system: S. cerevisiae ycf1Δ mutant strain DTY167; format: cell-based; settings: for IC50: read-out: concentration required for 50% attenuation of cell density
[2] = system: S. cerevisiae INVSc1 cells; assay: Cd2+ dose-response growth of TaPCS1-expressing and control yeast cells; format: cell-based; settings: YNB 1% sucrose/1% galactose, OD600 after 24 hours, read-out: K0.5 for growth
TaPCS1 message = assay: Competitive PCR of TaPCS1 expression in wheat roots; format: in vivo; settings: wheat roots treated with 100 μM Cd2+ for 6 hours versus untreated
[3] = system: S. cerevisiae cells expressing an Arabidopsis metallothionein; assay: Growth in presence of Cd2+ after BSO preincubation, metallothionein cells; format: cell-based; settings: 6 hour preincubation, 60 μM Cd2+, OD 18 hours after Cd2+
Method: FIG. 13A is a graph depicting phytochelatin synthesis in cells expressing PCS. The growth of S. cerevisiae cells expressing either TaPCS1 (circles) or an Arabidopsis metallothionein (squares) in the presence of Cd^2+ (200 μM for TAPCS1 and 60 μM for metallothionein) following a 6 hour preincubation using different concentrations of BSO (L-Buthionine-sulfoxime), a glutathione synthesis inhibitor. The OD was measured 18 hours after the addition of Cd^2+.

[4] = system: S. cerevisiae cells expressing TaPCS1; settings: 6 hour preincubation, 200 μM Cd2+, OD 18 hours after Cd2+
[5] = Equilibrium dialysis of purified AtPCS1-FLAG against 109CdCl2; format: binding; settings: immunoaffinity-purified protein
Method: The binding of Cd^2+ was determined by equilibrium dialysis of a 400-800 μl (160 μg) sample of purified AtPCS1-FLAG against 80 ml volumes of 10 mM Tris-HCl buffer, pH 7.8, containing 0.05 to 20 μM ^109CdCl2 (specific activity 22 Ci/mol, Amersham Pharmacia Biotech, Piscataway, N.J.) for 12 hours at 4° C. in 2 ml mini-collodion membrane tubes (molecular weight cut-off of 25,000; Schleicher and Schuell, Inc., Keene, N.H.). Protein-bound ^109Cd was estimated by measuring the radioactivity of the bulk medium outside the dialysis tube and that of the solution within the dialysis tube and determining the increase in ^109Cd radioactivity consequent on AtPCS1-FLAG. Binding constants and stoichiometries of binding were estimated by nonlinear least squares analysis (Marquardt, 1963, J. Soc. Ind. Appl. Math. 11:431-441) using the Ultrafit nonlinear curve fitting package from BioSoft (Ferguson, Mo.).

[6] = PC synthase activity assay (incorporation of GSH into PC2 and PC3); format: biochemical; settings: for aggregate rate of incorporation of GSH into PC2 and PC3: purified protein
Method: PC synthase activity was assayed according to Grill et al. (1989, Proc. Natl. Acad. Sci. U.S.A. 86:6838-6842) in reaction media containing crude soluble fraction (50 μg protein), purified AtPCS1-FLAG (0.5 μg) or no protein, 3.3 mM GSH, 10 mM 2-mercaptoethanol and 200 mM Tris-HCl buffer (pH 8.0) plus or minus 200 μM CdCl2 at 37° C. for 40 minutes. After terminating the reactions with 5% (w/v) 5-sulfosalicylic acid, PCs were estimated in the supernatant by reverse-phase FPLC and reaction with DTNB.

S. cerevisiae = assay: Growth of PCS-expressing yeast on YNB medium with 100 μM Cd2+; format: cell-based
S. cerevisiae cells = assay: Cd2+ accumulation using 109Cd2+; format: cell-based; settings: versus empty pYES2 cells; 24 hour culture, non-inhibitory Cd2+ concentrations, n=3
Method: FIG. 10 is a graph depicting the greater accumulation of Cd^2+ by cells expressing TaPCS1 compared to the Cd^2+ accumulation by control cells. Yeast cells carrying the empty pYES2 plasmid (white bars) and TaPCS1-expressing cells (black bars) were grown in arginine-phosphate medium containing different non-inhibitory Cd^2+ concentrations. After 24 hours, the cells were harvested and washed and the amount of Cd^2+ accumulated inside the cells was determined using ^109 Cd^2+ (Error bars=S.E., n=3).
S. cerevisiae cells were grown in arginine-phosphate medium for 24 hours in the presence of various amounts of CdCl2 containing 0.5 μCi ^109Cd^2+. The cells were harvested and washed. The radioactivity was determined as described previously (Clemens et al., 1998, Proc. Natl. Acad. Sci. U.S.A. 95:12043-12048).

Molecule: O=[As]O [AsO2^−]
- fold increase in concentration exerting 50% inhibition of growth in liquid culture [1]: 1.6 fold
- IC50 [1]: 200 µM and 325 µM

Molecule: [Hg+2] [Hg^2+]
- fold increase in concentration exerting 50% inhibition of growth in liquid culture [1]: 1.6 fold
- IC50 [1]: 4 µM and 6.3 µM

Molecule: [Cl][Cd][Cl] [Cd^2+, CdCl2]
- fold increase in concentration exerting 50% inhibition of growth in liquid culture [1]: 24 fold
- IC50 ([2]; TaPCS1-expressing cells): 90 µM
- IC50 ([2]; control cells with empty pYES2): 6 µM
- fold higher concentration of TaPCS1 message (TaPCS1 message): 5-10 fold

Molecule: CCCCS(=N)(=O)CCC(N)C(=O)O [BSO, L-Buthionine-sulfoxime]
- effect on metallothionein-dependent Cd2+ tolerance [3]: no effect
- effect on TaPCS1-mediated Cd2+ tolerance [4]: reduced the TaPCS1-mediated Cd^2+ tolerance in a dose-dependent manner

Molecule: [Cu+2] [Cu^2+]
- fold increase in concentration exerting 50% inhibition of growth in liquid culture [1]: 2.4 fold

B1: AtPCS1-FLAG (protein, UniProt Q9S7Z3 1-485, looked up)
Glutathione …: MAMASLYRRSLPSPPAIDFSSAEGKLIFNEALQKGTMEGFFRLISYFQTQSEPAYCGLASLSVVLNALSIDPGRKWKGPWRWFDESMLDCCEPLEVVKEKGISFGKVVCLAHCSGAKVEAFRTSQSTIDDFRKFVVKCTSSENCHMISTYHRGVFKQTGTGHFSPIGGYNAERDMALILDVARFKYPPHWVPLKLLWEAMDSIDQSTGKRRGFMLISRPHREPGLLYTLSCKDESWIEIAKYLKEDVPRLVSSQHVDSVEKIISVVFKSLPSNFNQFIRWVAEIRITEDSNQNLSAEEKSRLKLKQLVLKEVHETELFKHINKFLSTVGYEDSLTYAAAKACCQGAEILSGSPSKEFCCRETCVKCIKGPDDSEGTVVTGVVVRDGNEQKVDLLVPSTQTECECGPEATYPAGNDVFTALLLALPPQTWSGIKDQALMHEMKQLISMASLPTLLQEEVLHLRRQLQLLKRCQENKEEDDLAAPAY
modifications: FLAG tag
- stoichiometric ratio of Cd2+ binding (cadmium per AtPCS1) [5]: 7.09±0.94
- aggregate rate of incorporation of GSH into PC2 and PC3 ([6]; absence of Cd2+): < 0.01 nmol/mg/min
- aggregate rate of incorporation of GSH into PC2 and PC3 ([6]; presence of Cd2+ (200 μM CdCl2), 3.3 mM GSH, 37° C.): 30000 to 35000 nmol/mg/min
- catalytic activity exceeding that of previous preparations from plants ([6]; versus Grill et al., 1989): more than 10^3 fold

B2: AtPCS1: Arabidopsis thaliana phytochelatin synthase, 55 kDa, SEQ ID NO: 2 (protein, UniProt Q9S7Z3 1-485, looked up)
Glutathione …: B1 Glutathione …
- stoichiometric ratio of Cd2+ binding (cadmium per AtPCS1) [5]: approximately 6
- Cd2+ tolerance conferred when expressed in S. cerevisiae (S. cerevisiae): strong Cd^2+ tolerance

B3: TaPCS1: wheat (Triticum aestivum) phytochelatin synthase, SEQ ID NO: 6 (protein, UniProt Q9SWW5 1-500, looked up)
Glutathione …: MEVASLYRRVLPSPPAVEFASAEGKRLFAEALQGGTMEGFFNLISYFQTQSEPAFCGLASLSVVLNALAIDPGRPWKGPWRWFDESMLDCCEPLHKVKAEGITFGKVVCLAHCAGARVQSFRADQTTIHDFRAHLTRCASSQDCHLISSYHRSPFKQTGTGHFSPIGGYHAEKDMALILDVARFKYPPHWVPLTLLWDAMNTTDEATGLLRGFMLVSRRSSAPSLLYTVSCGHGSWKSMAKYCVEDVPNLLKDESLDNVTTLLSRLVESLPANAGDLIKCVIEVRRKEEGESSLSKEEKERLFLKEKVLQQIRDTDLFRVVHELQYPKGLCGSCSSSSDEDSLAEIAATVCCQGAAFLSGNLVSRDGFCCRETCIKCIEANGDGLKTVISGTVVSKGNEQAVDLLLPTSSSKTSLCNSNLKSKIVKYPSSTDVLTVLLLVLQPNTWLGIKDENVKAEFQSLVSTDNLPDLLKQEILHLRRQLHYLAGCKGQEACQEPPSP
- increase in Cd2+ accumulation (S. cerevisiae cells): 30-50%

Reference: patent US6489537B1 (priority 1998, dated 2002)
